Assay results: PubChem BioAssay (NCI)
Several values for one entry are separate records, joined by “and”; a condition that tells them apart may be missing. Identical values can stand only once.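 A five-concentration, 48-hour dose response in 96-well plates underlies each endpoint, interpolated linearly between surrounding concentrations. GI50: concentration for 50% inhibition of growth. TGI: concentration producing complete growth inhibition.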

Tests used:
Experiment in all cases: inhibition of tumour cell growth, NCI panel, 48 h
HL-60(TB) leukemia = tested on: HL-60(TB) leukemia
HOP-62 NSCLC = tested on: HOP-62 NSCLC
SK-MEL-28 melanoma = tested on: SK-MEL-28 melanoma
M14 melanoma = tested on: M14 melanoma
SF-295 CNS = tested on: SF-295 CNS
SF-268 CNS = tested on: SF-268 CNS
786-0 renal = tested on: 786-0 renal
RXF 393 renal = tested on: RXF 393 renal
SN12C renal = tested on: SN12C renal
SF-539 CNS = tested on: SF-539 CNS

Structure (SMILES)	GI50 (HL-60(TB) leukemia)	TGI (HL-60(TB) leukemia)	GI50 (HOP-62 NSCLC)	TGI (HOP-62 NSCLC)	GI50 (SK-MEL-28 melanoma)	TGI (SK-MEL-28 melanoma)	GI50 (M14 melanoma)	TGI (M14 melanoma)	GI50 (SF-295 CNS)	TGI (SF-295 CNS)	GI50 (SF-268 CNS)	TGI (SF-268 CNS)	GI50 (786-0 renal)	TGI (786-0 renal)	GI50 (RXF 393 renal)	TGI (RXF 393 renal)	GI50 (SN12C renal)	TGI (SN12C renal)	GI50 (SF-539 CNS)	TGI (SF-539 CNS)
O=C1CC2OCC=C3CN4CCC56c7ccccc7N1C5C2C3CC46 (stereo not drawn) (tested in a mixture with another compound)	0.103 µg/mL	0.216 µg/mL	> 50 µg/mL	> 50 µg/mL	> 50 µg/mL	> 50 µg/mL	> 50 µg/mL	> 50 µg/mL	> 50 µg/mL	> 50 µg/mL	> 50 µg/mL	> 50 µg/mL	> 50 µg/mL	> 50 µg/mL	> 50 µg/mL	> 50 µg/mL	> 50 µg/mL	> 50 µg/mL	> 50 µg/mL	> 50 µg/mL
CCCC(CCC)C(=O)O	> 100000 nM	> 20000 µM	> 20000 µM	> 20000 µM	–	> 100 µM	19900 µM	> 20000 µM	> 100000 nM	> 20000 µM	> 100 µM	> 100 µM and 12000 µM	> 20000 µM	> 20000 µM	> 100 µM	> 100 µM and 14600 µM	> 20000 µM	> 20000 µM	> 100000 nM	> 20000 µM
COc1cc2c3c(n(CCCN4CCN(CCO)CC4)c(=O)c2cc1OC)-c1cc2c(cc1C3=O)OCO2	6350 nM	> 41.7 µM	10.1 µM	54 µM	17.5 µM	32.1 µM	6.23 µM	19.5 µM	1550 nM	25.2 µM	5.23 µM	> 100 µM	4.97 µM	18 µM	13.4 µM	30.9 µM	> 100 µM	> 100 µM	1460 nM	6.3 µM
O=C1/C(=C/c2cccc(F)c2)CN(C(=O)C(Cl)Cl)C/C1=C\c1cccc(F)c1	218 nM	0.773 µM	0.353 µM	1.19 µM	0.243 µM	0.601 µM	0.258 µM	0.872 µM	217 nM	0.629 µM	0.427 µM	1.75 µM	0.217 µM	0.536 µM	0.194 µM	0.397 µM	0.189 µM	0.475 µM	265 nM	0.824 µM
COC(=O)CCc1c(/C=C2\N=C(c3ccc[nH]3)C=C2OC)[nH]c(C)c1C(=O)OCc1ccccc1	446 nM	2.42 µM	0.303 µM	2 µM	0.503 µM	2.3 µM	0.256 µM	0.784 µM	384 nM	1.73 µM	0.514 µM	8.23 µM	0.159 µM	1.3 µM	0.549 µM	3.38 µM	0.442 µM	2.5 µM	363 nM	1.83 µM
CC1(C)N=C(N)N=C(N)N1c1ccc(CCC(=O)Nc2cccc(S(=O)(=O)F)c2)cc1	2860 nM	> 100 µM	6.56 µM	> 100 µM	81.1 µM	> 100 µM	6.69 µM	> 100 µM	7750 nM	> 100 µM	4.74 µM	> 100 µM	3.89 µM	> 100 µM	56.8 µM	> 100 µM	4.67 µM	> 100 µM	5650 nM	> 100 µM
Nc1ncnc2c1ncn2C1OC(C(=O)OCCO)C(O)C1O (stereo not drawn)	–	> 100 µM	–	> 100 µM	–	> 100 µM	–	> 100 µM	–	> 100 µM	–	> 100 µM	–	> 100 µM	–	> 100 µM	–	> 100 µM	–	> 100 µM
Cn1c(=O)c2[nH]cnc2n(C)c1=O.[CH2-]C(Cc1cccc2cc(C(=O)O)c(=O)oc12)OC.[Hg+2].[OH-] (stereo not drawn)	30500 nM	58.3 µM	19.2 µM	41.8 µM	19.1 µM	33.5 µM	16.9 µM	30.7 µM	19400 nM	38 µM	16.9 µM	30.6 µM	16.6 µM	30.2 µM	19.3 µM	35.9 µM	18 µM	32.5 µM	14600 nM	29.8 µM
Cc1ccc(SSCCCCS(=O)O)cc1	–	20.4 µM	–	81.1 µM	–	44.1 µM	–	32.6 µM	–	96.4 µM	–	46.9 µM	–	> 100 µM	–	29.1 µM	–	40.4 µM	–	38.1 µM
NC(N)=N/N=C/c1ccc(Br)cc1	2500 nM	> 100 µM	9.8 µM	24.2 µM	5.61 µM	18.8 µM	2.21 µM	5.67 µM	2950 nM	11.8 µM	12.4 µM	38.2 µM	5.11 µM	17.7 µM	3.68 µM	12.3 µM	6.55 µM	20.2 µM	2330 nM	6.35 µM
O=C1C=C(OCC=C(Cl)Cl)C(=O)c2ccccc21	1390 nM	–	54.9 µM	> 100 µM	4.91 µM	23.9 µM	3.73 µM	30.2 µM	12700 nM	> 65.8 µM	6.57 µM	> 85.7 µM	51.9 µM	> 100 µM	2.46 µM	11.1 µM	2.61 µM	8.27 µM	43900 nM	> 100 µM
NS(=O)(=O)c1ccc(N=Nc2c(=O)[nH]c3ccc4[nH]cccc4c23)cc1	557 nM	1.53 µM	0.653 µM	> 25 µM	0.518 µM	1.64 µM	0.82 µM	5.64 µM	883 nM	> 25 µM	0.33 µM	> 5.99 µM	0.577 µM	> 25 µM	0.15 µM	0.449 µM	0.47 µM	> 25 µM	295 nM	1.46 µM
Cc1ccccc1NC(=O)CC(=O)n1nc(-c2ccccc2)c(N=Nc2ccc([N+](=O)[O-])cc2)c1-c1ccccc1	–	60.5 µM	–	48.3 µM	–	96.9 µM	–	33.3 µM	–	49.6 µM	–	> 100 µM	–	67.1 µM	–	82 µM	–	58.4 µM	–	52 µM
